{
  "source": "patent US7087769B1",
  "about": "“Process for the preparation of cationic surfactants” (Laboratorios Miret, S.A., priority 2000, dated 2006)",
  "origin": "cited, not measured here",
  "key": {"[1]": {"details": "human beings"}, "Candida albicans": {"system": "Candida albicans", "details": "EP-A-0 749 960"}, "[2]": {"system": "Bordetella bronchiseptica"}, "[3]": {"details": "animals"}, "Pseudomonas aeruginosa": {"system": "Pseudomonas aeruginosa", "details": "EP-A-0 749 960"}, "Aspergillus niger": {"system": "Aspergillus niger", "details": "EP-A-0 749 960"}, "[4]": {"system": "Klebsiella pneumoniae spp. pneumoniae"}, "Staphylococcus aureus": {"system": "Staphylococcus aureus", "details": "EP-A-0 749 960"}, "Escherichia coli": {"system": "Escherichia coli", "details": "EP-A-0 749 960"}, "[5]": {"system": "Bacillus cereus spp. mycoide"}},
  "note": "Read-outs that look alike come from different tables or passages of the source.",
  "data": [
    {"smiles": "CCCCCCCCCCCC(=O)N[C@@H](CCCNC(=N)N)C(=O)OCC.Cl", "note": "[ethyl ester of N^α-lauroyl-L-arginine monohydrochloride]", "values": [
      {"measurement": "efficacy against yeasts", "setting": "Zygosaccharomyces rouxii", "value": "efficaceous"},
      {"measurement": "efficacy against bacteria", "setting": "Listeria monocytogenes", "value": "efficaceous"},
      {"measurement": "efficacy against fungi", "setting": "Penicillium chrysogenum", "value": "efficaceous"},
      {"measurement": "efficacy against fungi", "setting": "Aureobasidium pullulans", "value": "efficaceous"},
      {"measurement": "tolerability", "setting": "[1]", "value": "well tolerated"},
      {"measurement": "efficacy against bacteria", "setting": "Mycobacterium phlei", "value": "efficaceous"},
      {"measurement": "efficacy against fungi", "setting": "Gliocadium virens", "value": "efficaceous"},
      {"measurement": "efficacy against microorganism", "setting": "Candida albicans", "value": "proven"},
      {"measurement": "efficacy against bacteria", "setting": "[2]", "value": "efficaceous"},
      {"measurement": "efficacy against fungi", "setting": "Chaetonium globosum", "value": "efficaceous"},
      {"measurement": "efficacy against bacteria", "setting": "Salmonelly thyphimurium", "value": "efficaceous"},
      {"measurement": "efficacy against bacteria", "setting": "Arthrobacter oxydans", "value": "efficaceous"},
      {"measurement": "efficacy against fungi", "setting": "Penicillium funiculosum", "value": "efficaceous"},
      {"measurement": "efficacy against fungi", "setting": "Mucor rouxii", "value": "efficaceous"},
      {"measurement": "efficacy against bacteria", "setting": "Bacillus subtilus", "value": "efficaceous"},
      {"measurement": "efficacy against yeasts", "setting": "Saccharomyces cerevisiae", "value": "efficaceous"},
      {"measurement": "efficacy against bacteria", "setting": "Citrobacter freundii", "value": "efficaceous"},
      {"measurement": "tolerability", "setting": "[3]", "value": "well tolerated"},
      {"measurement": "efficacy against bacteria", "setting": "Enterobacter aerogenes", "value": "efficaceous"},
      {"measurement": "efficacy against yeasts", "setting": "Rhodotorula rubra", "value": "efficaceous"},
      {"measurement": "efficacy against microorganism", "setting": "Pseudomonas aeruginosa", "value": "proven"},
      {"measurement": "efficacy against microorganism", "setting": "Aspergillus niger", "value": "proven"},
      {"measurement": "efficacy against bacteria", "setting": "[4]", "value": "efficaceous"},
      {"measurement": "efficacy against microorganism", "setting": "Staphylococcus aureus", "value": "proven"},
      {"measurement": "efficacy against microorganism", "setting": "Escherichia coli", "value": "proven"},
      {"measurement": "efficacy against bacteria", "setting": "[5]", "value": "efficaceous"},
      {"measurement": "efficacy against bacteria", "setting": "Proteus mirabilis", "value": "efficaceous"},
      {"measurement": "efficacy against bacteria", "setting": "Alcaligenes faecalis", "value": "efficaceous"},
      {"measurement": "efficacy against bacteria", "setting": "Micrococcus luteus", "value": "efficaceous"},
      {"measurement": "efficacy against bacteria", "setting": "Serratia marcescens", "value": "efficaceous"}
    ]}
  ]
}
